{"source": "patent US10414769B2", "about": "“5,8-dimethyl-9-phenyl-5,8-dihydro-6H-pyrazolo[3,4-h]quinazolin-2-yl)-(1H-pyrazol-3-yl)-amines as IGF-1R/IR inhibitors” (Boehringer Ingelheim International GmbH, priority 2015, dated 2019)", "assay_type_in_all_cases": "biochemical", "key": {"CSNK1A1 (CK1 alpha 1)": {"target": "T1, CSNK1A1 (CK1 alpha 1) (Homo sapiens, UniProt P48729)", "T1 construct": "purchased Life Technologies PV 3850", "test": "Z'-LYTE kinase selectivity assay CSNK1A1", "text": "(§1) In order to compare the kinase selectivity of compounds (I) according to the invention with known prior art compounds the commercially provided SelectScreen® Kinase Profiling Service (Z′-LYTE®) was used (Life Technologies GmbH, Darmstadt, Germany) to investigate the ability of the compounds to inhibit a number of different, representatively selected human kinases. Further details regarding this service are available on the Life Technologies website at\n(§2) The Z′-LYTE® biochemical assay employs a fluorescence-based, coupled-enzyme format and is based on the differential sensitivity of phosphorylated and non-phosphorylated peptides to proteolytic cleavage. The peptide substrate is labeled with two fluorophores—one at each end—that make up a FRET pair.\n(§3) In the primary reaction, the kinase transfers the gamma-phosphate of ATP to a single tyrosine, serine or threonine residue in a synthetic FRET-peptide. In the secondary reaction, a site-specific protease recognizes and cleaves non-phosphorylated FRET-peptides. Phosphorylation of FRET-peptides suppresses cleavage by the Development Reagent. Cleavage disrupts FRET between the donor (i.e., coumarin) and acceptor (i.e., fluorescein) fluorophores on the FRET-peptide, whereas uncleaved, phosphorylated FRET-peptides maintain FRET. A ratiometric method, which calculates the ratio (the Emission Ratio) of donor emission to acceptor emission after excitation of the donor fluorophore at 400 nm, is used to quantitate reaction progress, as shown in the equation below.\n(§4) The Test Compounds are screened at 1 μM.\n(§5) The 2×CSNK1A1 (CK1 alpha 1) (# PV 3850)/Ser/Thr 11 (Z′-LYTE® Kinase Assay Kit—Ser/Thr 11 Peptide, # PV 3670) mixture is prepared in 50 mM HEPES pH 7.5, 0.01% BRIJ-35, 10 mM MgCl2, 1 mM EGTA, 2 mM DTT. The final 10 μL Kinase Reaction consists of 2.6-13.5 ng CSNK1A1 (CK1 alpha 1) and 2 μM Ser/Thr 11 in 50 mM HEPES pH 7.5, 0.01% BRIJ-35, 10 mM MgCl2, 1 mM EGTA, 1 mM DTT. After the 1 hour Kinase Reaction incubation, 5 μL of a 1:16 dilution of Development Reagent B is added."}, "CSNK2A1 (CK2 alpha 1)": {"target": "T2, CSNK2A1 (CK2 alpha 1) (Homo sapiens, UniProt P68400)", "T2 construct": "purchased Life Technologies PV 3248", "test": "Z'-LYTE kinase selectivity assay CSNK2A1", "text": "as §1, §2, §3, §4\nas §5, with “2×CSNK2A1 (CK2” for “2×CSNK1A1 (CK1”, “3248)/Ser/Thr” for “3850)/Ser/Thr”, “EGTA.” for “EGTA, 2 mM DTT.”, “0.68-25.7” for “2.6-13.5”, “CSNK2A1 (CK2” for “CSNK1A1 (CK1”, “EGTA.” for “EGTA, 1 mM DTT.”"}, "SRPK2": {"target": "T3, SRPK2 (Homo sapiens, UniProt P78362)", "T3 construct": "purchased Life Technologies PV 3829", "test": "Z'-LYTE kinase selectivity assay SRPK2", "text": "as §1, §2, §3, §4\nThe 2×SRPK2 (# PV 3829)/Ser/Thr 07 (Z′-LYTE® Kinase Assay Kit—Ser/Thr 7 Peptide, # PV 3180) mixture is prepared in 50 mM HEPES pH 7.5, 0.01% BRIJ-35, 10 mM MgCl2, 1 mM EGTA. The final 10 μL Kinase Reaction consists of 3.76-52 ng SRPK2 and 2 μM Ser/Thr 07 in 50 mM HEPES pH 7.5, 0.01% BRIJ-35, 10 mM MgCl2, 1 mM EGTA. After the 1 hour Kinase Reaction incubation, 5 μL of a 1:65000 dilution of Development Reagent A is added."}, "TBK1": {"target": "T4, TBK1 (Homo sapiens, UniProt Q9UHD2)", "T4 construct": "purchased Life Technologies PV 3504", "T4 sequence (Q9UHD2 1-729)": "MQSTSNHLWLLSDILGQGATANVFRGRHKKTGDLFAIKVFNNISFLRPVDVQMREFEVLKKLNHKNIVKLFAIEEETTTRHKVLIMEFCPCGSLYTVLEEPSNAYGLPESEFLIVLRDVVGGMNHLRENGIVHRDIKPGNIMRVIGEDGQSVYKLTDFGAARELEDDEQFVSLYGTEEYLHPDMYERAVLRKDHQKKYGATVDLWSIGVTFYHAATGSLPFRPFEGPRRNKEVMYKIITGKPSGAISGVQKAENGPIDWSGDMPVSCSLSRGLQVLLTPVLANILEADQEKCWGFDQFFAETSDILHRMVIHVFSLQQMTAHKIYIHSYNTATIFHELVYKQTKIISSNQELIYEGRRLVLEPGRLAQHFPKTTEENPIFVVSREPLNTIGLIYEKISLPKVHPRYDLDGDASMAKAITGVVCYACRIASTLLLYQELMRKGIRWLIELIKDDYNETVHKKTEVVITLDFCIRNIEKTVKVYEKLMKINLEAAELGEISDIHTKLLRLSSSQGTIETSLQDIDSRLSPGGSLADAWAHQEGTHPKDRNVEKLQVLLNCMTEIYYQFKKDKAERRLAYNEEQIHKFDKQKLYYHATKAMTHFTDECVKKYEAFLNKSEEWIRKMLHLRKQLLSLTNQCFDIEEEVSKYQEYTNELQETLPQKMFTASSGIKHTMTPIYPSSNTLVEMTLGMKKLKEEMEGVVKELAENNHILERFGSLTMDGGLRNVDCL", "test": "Z'-LYTE kinase selectivity assay TBK1", "text": "as §1, §2, §3, §4\nThe 2×TBK1 (# PV 3504)/Ser/Thr 05 (Z′-LYTE® Kinase Assay Kit—Ser/Thr 5 Peptide, # PV 3178) mixture is prepared in 50 mM HEPES pH 7.5, 0.01% BRIJ-35, 10 mM MgCl2, 1 mM EGTA. The final 10 μL Kinase Reaction consists of 0.7-9.72 ng TBK1 and 2 μM Ser/Thr 05 in 50 mM HEPES pH 7.5, 0.01% BRIJ-35, 10 mM MgCl2, 1 mM EGTA. After the 1 hour Kinase Reaction incubation, 5 μL of a 1:64 dilution of Development Reagent B is added."}, "RAF1 (cRAF) Y340D Y341D": {"target": "T5, RAF1 (cRAF) Y340D Y341D (Homo sapiens, UniProt P04049, Y340D/Y341D)", "T5 construct": "purchased Life Technologies PV 4046", "T5 sequence (P04049 306-648 Y340D/Y341D limits assumed)": "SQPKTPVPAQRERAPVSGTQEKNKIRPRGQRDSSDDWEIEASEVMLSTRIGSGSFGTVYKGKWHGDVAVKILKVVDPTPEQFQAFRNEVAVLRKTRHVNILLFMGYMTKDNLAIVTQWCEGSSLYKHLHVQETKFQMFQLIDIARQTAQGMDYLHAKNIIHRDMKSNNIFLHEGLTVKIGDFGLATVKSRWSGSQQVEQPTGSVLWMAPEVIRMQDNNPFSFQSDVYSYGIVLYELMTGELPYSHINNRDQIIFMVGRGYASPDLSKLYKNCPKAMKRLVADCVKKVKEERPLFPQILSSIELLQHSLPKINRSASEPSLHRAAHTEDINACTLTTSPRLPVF", "test": "Z'-LYTE kinase selectivity assay RAF1", "text": "as §1, §2, §3, §4\nAfter the 1 hour Kinase Reaction incubation, 5 μL of a 1:1024 dilution of Development Reagent A is added."}}, "data": [{"smiles": "C[C@@H]1Cc2nn(C)c(-c3ccccc3)c2-c2nc(Nc3ccn(CCN4CCN(C)CC4)n3)ncc21", "note": "[Compound I-1]", "values": [{"measurement": "inhibition at 1 µM", "setting": "CSNK1A1 (CK1 alpha 1)", "value": 16, "unit": "%"}, {"measurement": "inhibition at 1 µM", "setting": "CSNK2A1 (CK2 alpha 1)", "value": 4, "unit": "%"}, {"measurement": "inhibition at 1 µM", "setting": "SRPK2", "value": 58, "unit": "%"}, {"measurement": "inhibition at 1 µM", "setting": "TBK1", "value": 38, "unit": "%"}, {"measurement": "inhibition at 1 µM", "setting": "RAF1 (cRAF) Y340D Y341D", "value": 16, "unit": "%"}]}, {"smiles": "C[C@@H]1Cc2nn(C)c(-c3ccccc3)c2-c2nc(Nc3ccn(CCN4CCOCC4)n3)ncc21", "note": "[Compound I-2]", "values": [{"measurement": "inhibition at 1 µM", "setting": "CSNK1A1 (CK1 alpha 1)", "value": 49, "unit": "%"}, {"measurement": "inhibition at 1 µM", "setting": "CSNK2A1 (CK2 alpha 1)", "value": 10, "unit": "%"}, {"measurement": "inhibition at 1 µM", "setting": "SRPK2", "value": 79, "unit": "%"}, {"measurement": "inhibition at 1 µM", "setting": "TBK1", "value": 48, "unit": "%"}, {"measurement": "inhibition at 1 µM", "setting": "RAF1 (cRAF) Y340D Y341D", "value": 40, "unit": "%"}]}, {"smiles": "C[C@@H]1Cc2nn(C)c(-c3ccccc3)c2-c2nc(Nc3ccn(CCN4CCN(CC(C)(C)O)CC4)n3)ncc21", "note": "[Compound I-3]", "values": [{"measurement": "inhibition at 1 µM", "setting": "CSNK1A1 (CK1 alpha 1)", "value": 37, "unit": "%"}, {"measurement": "inhibition at 1 µM", "setting": "CSNK2A1 (CK2 alpha 1)", "value": 3, "unit": "%"}, {"measurement": "inhibition at 1 µM", "setting": "SRPK2", "value": 49, "unit": "%"}, {"measurement": "inhibition at 1 µM", "setting": "TBK1", "value": 51, "unit": "%"}, {"measurement": "inhibition at 1 µM", "setting": "RAF1 (cRAF) Y340D Y341D", "value": 31, "unit": "%"}]}, {"smiles": "CC(O)CN1CCN(CCn2ccc(Nc3ncc4c(n3)-c3c(nn(C)c3-c3ccccc3)C[C@H]4C)n2)CC1", "note": "(some centres unmarked) [Compound I-7]", "values": [{"measurement": "inhibition at 1 µM", "setting": "CSNK1A1 (CK1 alpha 1)", "value": 29, "unit": "%"}, {"measurement": "inhibition at 1 µM", "setting": "CSNK2A1 (CK2 alpha 1)", "value": 8, "unit": "%"}, {"measurement": "inhibition at 1 µM", "setting": "SRPK2", "value": 58, "unit": "%"}, {"measurement": "inhibition at 1 µM", "setting": "TBK1", "value": 49, "unit": "%"}, {"measurement": "inhibition at 1 µM", "setting": "RAF1 (cRAF) Y340D Y341D", "value": 36, "unit": "%"}]}, {"smiles": "C[C@@H]1Cc2nn(C)c(-c3ccccc3)c2-c2nc(Nc3ccn(CCN4CCN(CC(=O)OC5CCOCC5)CC4)n3)ncc21", "note": "[Compound I-8]", "values": [{"measurement": "inhibition at 1 µM", "setting": "CSNK1A1 (CK1 alpha 1)", "value": 38, "unit": "%"}, {"measurement": "inhibition at 1 µM", "setting": "CSNK2A1 (CK2 alpha 1)", "value": 7, "unit": "%"}, {"measurement": "inhibition at 1 µM", "setting": "SRPK2", "value": 48, "unit": "%"}, {"measurement": "inhibition at 1 µM", "setting": "TBK1", "value": 46, "unit": "%"}, {"measurement": "inhibition at 1 µM", "setting": "RAF1 (cRAF) Y340D Y341D", "value": 25, "unit": "%"}]}, {"smiles": "C[C@@H]1Cc2nn(C)c(-c3ccccc3)c2-c2nc(Nc3ccn(CCN4CCN(CC5CCCO5)CC4)n3)ncc21", "note": "(some centres unmarked) [Compound I-9]", "values": [{"measurement": "inhibition at 1 µM", "setting": "CSNK1A1 (CK1 alpha 1)", "value": 37, "unit": "%"}, {"measurement": "inhibition at 1 µM", "setting": "CSNK2A1 (CK2 alpha 1)", "value": 1, "unit": "%"}, {"measurement": "inhibition at 1 µM", "setting": "SRPK2", "value": 49, "unit": "%"}, {"measurement": "inhibition at 1 µM", "setting": "TBK1", "value": 57, "unit": "%"}, {"measurement": "inhibition at 1 µM", "setting": "RAF1 (cRAF) Y340D Y341D", "value": 32, "unit": "%"}]}, {"smiles": "COCCN1CCN(CCn2ccc(Nc3ncc4c(n3)-c3c(nn(C)c3-c3ccccc3)C[C@H]4C)n2)CC1", "note": "[Compound I-11]", "values": [{"measurement": "inhibition at 1 µM", "setting": "CSNK1A1 (CK1 alpha 1)", "value": 17, "unit": "%"}, {"measurement": "inhibition at 1 µM", "setting": "CSNK2A1 (CK2 alpha 1)", "value": 2, "unit": "%"}, {"measurement": "inhibition at 1 µM", "setting": "SRPK2", "value": 38, "unit": "%"}, {"measurement": "inhibition at 1 µM", "setting": "TBK1", "value": 33, "unit": "%"}, {"measurement": "inhibition at 1 µM", "setting": "RAF1 (cRAF) Y340D Y341D", "value": 14, "unit": "%"}]}]}
